# Biological target: human PDE10A (Homo sapiens (Human), UniProt Q9Y233)
# Test: human PDE10A full length Scintillation Proximity Assay (SPA)
# Type: biochemical
# Details: PDE10A full length enzyme, 50 nM cGMP / [3H]-cGMP substrate, 20 minutes at room temperature
# Summary of the method: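 Full-length human PDE10A with 50 nM cGMP plus 50 nM [3H]-cGMP in 20 mM HEPES pH 7.5, 10 mM MgCl2, 0.05 mg/ml BSA; 20 min at room temperature. Stopped with yttrium silicate SPA beads in zinc sulphate, scintillation counted; IC50 from concentration range.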
# human PDE10A, sequence (Q9Y233 other isoform, or with tags, fused parts or gaps): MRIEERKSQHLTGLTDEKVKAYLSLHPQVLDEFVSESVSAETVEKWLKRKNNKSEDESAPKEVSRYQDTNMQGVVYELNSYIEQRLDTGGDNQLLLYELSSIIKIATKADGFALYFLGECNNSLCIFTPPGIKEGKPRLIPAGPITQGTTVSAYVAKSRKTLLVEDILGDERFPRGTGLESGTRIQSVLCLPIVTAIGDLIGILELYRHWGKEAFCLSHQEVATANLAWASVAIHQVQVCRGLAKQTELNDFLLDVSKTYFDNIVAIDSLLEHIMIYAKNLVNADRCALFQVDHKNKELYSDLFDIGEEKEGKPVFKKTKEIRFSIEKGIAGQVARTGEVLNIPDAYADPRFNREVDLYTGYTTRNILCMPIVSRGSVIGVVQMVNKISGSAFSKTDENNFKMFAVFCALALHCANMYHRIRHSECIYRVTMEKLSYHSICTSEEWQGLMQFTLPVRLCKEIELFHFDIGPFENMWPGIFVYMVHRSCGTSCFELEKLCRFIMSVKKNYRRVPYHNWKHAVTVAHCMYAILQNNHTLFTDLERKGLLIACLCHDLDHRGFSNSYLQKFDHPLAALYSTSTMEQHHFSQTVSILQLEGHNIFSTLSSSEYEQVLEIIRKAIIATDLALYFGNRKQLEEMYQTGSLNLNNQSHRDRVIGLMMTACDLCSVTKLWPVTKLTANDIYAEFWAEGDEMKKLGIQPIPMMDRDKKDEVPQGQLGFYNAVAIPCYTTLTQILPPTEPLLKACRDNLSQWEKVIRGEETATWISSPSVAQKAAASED
row,IC50 [nM],SMILES
1,0.72,"Cc1c(Cl)cc(C(F)(F)F)c2nc(CCc3nc(N4CCCC4)n[nH]3)nn12 [Example 128, 6-Chloro-5-methyl-2-(2-(3-(pyrrolidin-1-yl)-1H-1,2,4-triazol-5-yl)ethyl)-8-(trifluoromethyl)-[1,2,4]triazolo[1,5-a]pyridine]"
2,48.1,"Cc1ncc(C)n2nc(CCc3nc(N4CCC(C(F)F)C4)nn3C)nc12 (stereo not drawn) [Example 129, 2-{2-[5-(3-Difluoromethyl-pyrrolidin-1-yl)-2-methyl-2H-[1,2,4]triazol-3-yl]-ethyl}-5,8-dimethyl-[1,2,4]triazolo[1,5-a]pyrazine]"
3,0.89,"Cc1c(Cl)cc(C(F)F)c2nc(CCc3nc(N4CCCC4)nn3C)nn12 [Example 130, 6-Chloro-8-(difluoromethyl)-5-methyl-2-(2-(1-methyl-3-(pyrrolidin-1-yl)-1H-1,2,4-triazol-5-yl)ethyl)-[1,2,4]triazolo[1,5-a]pyridine]"
4,1.58,"Cc1c(Cl)cc(C(F)(F)F)c2nc(CCc3nc(N4CCCC4)n(C4CC4)n3)nn12 [Example 131, 6-Chloro-2-(2-(1-cyclopropyl-5-(pyrrolidin-1-yl)-1H-1,2,4-triazol-3-yl)ethyl)-5-methyl-8-(trifluoromethyl)-[1,2,4]triazolo[1,5-a]pyridine]"
5,0.72,"Cc1c(Cl)cc(C(F)(F)F)c2nc(CCc3nc(N4CCCC4)nn3C3CC3)nn12 [Example 132, 6-Chloro-2-(2-(1-cyclopropyl-3-(pyrrolidin-1-yl)-1H-1,2,4-triazol-5-yl)ethyl)-5-methyl-8-(trifluoromethyl)-[1,2,4]triazolo[1,5-a]pyridine]"
6,17.8,"COc1ccc(Cn2nc(C#Cc3cnc4ccc(Cl)cc4n3)nc2N2CCCC2)cc1 [Example 133, 7-chloro-2-((1-(4-methoxybenzyl)-5-(pyrrolidin-1-yl)-1H-1,2,4-triazol-3-yl)ethynyl)quinoxaline]"
7,33,"Clc1ccc2ncc(CCc3n[nH]c(N4CCCC4)n3)nc2c1 [Example 134, 7-chloro-2-(2-(5-(pyrrolidin-1-yl)-1H-1,2,4-triazol-3-yl)ethyl)quinoxaline]"
8,10.7,"Cc1nc2cc(Cl)ccc2nc1C#Cc1nc(N2CCCC2)nn1C [Example 135, 6-Chloro-3-methyl-2-(2-methyl-5-pyrrolidin-1-yl-2H-[1,2,4]triazol-3-ylethynyl)-quinoxaline]"
9,5.17,"Cc1nc2ccc(Cl)cc2nc1C#Cc1nc(N2CCCC2)nn1C [Example 136, 6-Chloro-2-methyl-3-(2-methyl-5-pyrrolidin-1-yl-2H-[1,2,4]triazol-3-ylethynyl)-quinoxaline]"

# From patent US9394311B2, “Triazolo compounds as PDE10 inhibitors” (Hoffmann-La Roche Inc., priority 2012, dated 2016)
